The record followed here is US20080027006A1 (priority 2004, published 2008).

Values after ≈ are worked out from the molar mass of the structure shown.

Data set [1] is classed as physicochemical. To be noted: pH 7.
For data set [2] the following is noted: pH 7.
Data set [3] can be described thus: physchem. As to conditions: pH 7.

Regarding `CC[C@H](C)[C@H](NC(=O)[C@H](C)NC(=O)[C@H](CCCCN)NC(=O)[C@H](CC(N)=O)NC(=O)[C@H](Cc1ccccc1)NC(=O)[C@H](CCC(N)=O)NC(=O)[C@H](CC(N)=O)NC(=O)[C@H](C)NC(=O)[C@@H](NC(=O)[C@H](CCC(N)=O)NC(=O)[C@H](CCCCN)NC(=O)[C@H](CCC(N)=O)NC(C)=O)[C@@H](C)CC)C(=O)N[C@@H](CO)C(=O)N[C@@H](CCC(N)=O)C(=O)N[C@H](C(=O)N[C@@H](CCC(N)=O)C(=O)N[C@@H](CCC(=O)O)C(=O)N[C@@H](CO)C(=O)N[C@@H](CC(C)C)C(=O)N[C@H](C(=O)N[C@H](C(=O)N[C@H](C(=O)N[C@@H](CO)C(=O)N[C@H](C(=O)N[C@@H](C)C(=O)N[C@@H](CC(C)C)C(=O)NCC(=O)N[C@@H](CCCCN)C(=O)N[C@@H](CC(C)C)C(=O)N[C@@H](CCC(N)=O)C(=O)N[C@@H](CC(=O)O)C(=O)N[C@H](C(=O)N[C@H](C(=O)N[C@@H](CC(N)=O)C(=O)N[C@@H](CCC(N)=O)C(N)=O)C(C)C)C(C)C)[C@@H](C)O)[C@@H](C)O)[C@@H](C)O)[C@@H](C)O)[C@@H](C)CC` [HR-N8], the “[θ]222, Benign” value in data set [1] is −2,500 degrees · cm^2 · dmol^−1.
As to `CC[C@H](C)[C@H](NC(=O)[C@H](C)NC(=O)[C@H](CCCCN)NC(=O)[C@H](CC(N)=O)NC(=O)[C@H](Cc1ccccc1)NC(=O)[C@H](CCC(N)=O)NC(=O)[C@H](CC(N)=O)NC(=O)[C@H](C)NC(=O)[C@@H](NC(=O)[C@H](CCC(N)=O)NC(=O)[C@H](CCCCN)NC(=O)[C@H](CCC(N)=O)NC(=O)[C@H](CC(N)=O)NC(=O)[C@H](CCC(=O)O)NC(=O)[C@H](Cc1ccc(O)cc1)NC(=O)[C@H](CC(C)C)NC(=O)[C@@H](NC(=O)[C@H](CC(N)=O)NC(=O)[C@H](CCC(N)=O)NC(C)=O)C(C)C)[C@@H](C)CC)C(=O)N[C@@H](CO)C(=O)N[C@@H](CCC(N)=O)C(=O)N[C@H](C(=O)N[C@@H](CCC(N)=O)C(=O)N[C@@H](CCC(=O)O)C(=O)N[C@@H](CO)C(=O)N[C@@H](CC(C)C)C(=O)N[C@H](C(=O)N[C@H](C(=O)N[C@H](C(=O)N[C@@H](CO)C(=O)N[C@H](C(=O)N[C@@H](C)C(=O)N[C@@H](CC(C)C)C(=O)NCC(=O)N[C@@H](CCCCN)C(N)=O)[C@@H](C)O)[C@@H](C)O)[C@@H](C)O)[C@@H](C)O)[C@@H](C)CC` [HR-N7], the “[θ]222, Benign” value in data set [1] was −2,800 degrees · cm^2 · dmol^−1.
For the molecule `CC[C@H](C)[C@H](NC(=O)[C@H](CCC(N)=O)NC(=O)[C@H](CO)NC(=O)[C@@H](NC(=O)[C@H](C)NC(=O)[C@H](CCCCN)NC(=O)[C@H](CC(N)=O)NC(=O)[C@H](Cc1ccccc1)NC(=O)[C@H](CCC(N)=O)NC(=O)[C@H](CC(N)=O)NC(=O)[C@H](C)NC(=O)[C@@H](NC(=O)[C@H](CCC(N)=O)NC(=O)[C@H](CCCCN)NC(=O)[C@H](CCC(N)=O)NC(=O)[C@H](CC(N)=O)NC(=O)[C@H](CCC(=O)O)NC(=O)[C@H](Cc1ccc(O)cc1)NC(=O)[C@H](CC(C)C)NC(=O)[C@@H](NC(=O)[C@H](CC(N)=O)NC(=O)[C@H](CCC(N)=O)NC(=O)[C@@H](NC(=O)[C@@H](NC(=O)CNC(=O)[C@@H](NC(=O)CNC(=O)[C@H](CC(N)=O)NC(=O)[C@H](Cc1ccccc1)NC(=O)[C@H](CCCNC(=N)N)NC(=O)[C@H](Cc1ccc(O)cc1)NC(=O)[C@H](C)NC(=O)[C@H](CCSC)NC(=O)[C@H](CCC(N)=O)NC(=O)[C@H](CCSC)NC(C)=O)[C@@H](C)CC)C(C)C)[C@@H](C)O)C(C)C)[C@@H](C)CC)[C@@H](C)CC)C(N)=O` [HR-N5], in data set [1], the “No. Helical Residues, 50% TFE” value turned out to be 24; the “[θ]222, 50% TFE” value is recorded as −24,200 degrees · cm^2 · dmol^−1; the “[θ]222, Benign” value is recorded as −4,300 degrees · cm^2 · dmol^−1. Moreover, in data set [2], the “solubility (in words)” value was “largely insoluble”. Also, the concentration in solution in data set [3] (solubility) was 15 µM (≈ 61.5 µg/mL).
With `CC[C@H](C)[C@H](NC(=O)[C@H](C)NC(=O)CNC(=O)[C@H](Cc1ccccc1)NC(=O)[C@H](CC(N)=O)NC(=O)[C@H](CO)NC(=O)[C@H](CO)NC(=O)[C@H](CC(C)C)NC(=O)[C@H](CCC(N)=O)NC(=O)[C@H](CCCCN)NC(=O)[C@@H](NC(=O)[C@H](CC(C)C)NC(=O)[C@@H](NC(=O)[C@H](CC(N)=O)NC(=O)[C@H](CC(C)C)NC(=O)[C@H](C)NC(=O)[C@H](CCC(N)=O)NC(=O)[C@H](C)NC(=O)[C@H](CC(N)=O)NC(=O)[C@H](CCC(N)=O)NC(=O)[C@H](CC(N)=O)NC(=O)[C@@H](NC(=O)[C@@H](NC(=O)[C@H](CC(=O)O)NC(=O)[C@H](CCC(N)=O)NC(=O)[C@H](CC(C)C)NC(=O)[C@H](CCCCN)NC(=O)CNC(=O)[C@H](CC(C)C)NC(=O)[C@H](C)NC(=O)[C@@H](NC(=O)[C@H](CO)NC(=O)[C@@H](NC(C)=O)[C@@H](C)O)[C@@H](C)O)C(C)C)C(C)C)[C@@H](C)O)C(C)C)C(=O)N[C@@H](CO)C(=O)N[C@@H](CO)C(N)=O` [HR-N11], the “[θ]222, Benign” value in data set [1] is given as −3,200 degrees · cm^2 · dmol^−1.
Regarding `CC[C@H](C)[C@H](NC(=O)CNC(=O)[C@H](CC(N)=O)NC(=O)[C@H](Cc1ccccc1)NC(C)=O)C(=O)NCC(=O)N[C@H](C(=O)N[C@H](C(=O)N[C@@H](CCC(N)=O)C(=O)N[C@@H](CC(N)=O)C(=O)N[C@H](C(=O)N[C@@H](CC(C)C)C(=O)N[C@@H](Cc1ccc(O)cc1)C(=O)N[C@@H](CCC(=O)O)C(=O)N[C@@H](CC(N)=O)C(=O)N[C@@H](CCC(N)=O)C(=O)N[C@@H](CCCCN)C(=O)N[C@@H](CCC(N)=O)C(=O)N[C@H](C(=O)N[C@@H](C)C(=O)N[C@@H](CC(N)=O)C(=O)N[C@@H](CCC(N)=O)C(=O)N[C@@H](Cc1ccccc1)C(=O)N[C@@H](CC(N)=O)C(=O)N[C@@H](CCCCN)C(=O)N[C@@H](C)C(=O)N[C@H](C(=O)N[C@@H](CO)C(=O)N[C@@H](CCC(N)=O)C(=O)N[C@H](C(=O)N[C@@H](CCC(N)=O)C(=O)N[C@@H](CCC(=O)O)C(=O)N[C@@H](CO)C(=O)N[C@@H](CC(C)C)C(=O)N[C@H](C(=O)N[C@H](C(N)=O)[C@@H](C)O)[C@@H](C)O)[C@@H](C)CC)[C@@H](C)CC)[C@@H](C)CC)C(C)C)[C@@H](C)O)C(C)C` [HR-N6], the “[θ]222, Benign” value in data set [1] was −3,300 degrees · cm^2 · dmol^−1.
On the same count and under the same terms, the result for `CC[C@H](C)[C@H](NC(C)=O)C(=O)N[C@@H](CCC(N)=O)C(=O)N[C@@H](CCC(=O)O)C(=O)N[C@@H](CO)C(=O)N[C@@H](CC(C)C)C(=O)N[C@H](C(=O)N[C@H](C(=O)N[C@H](C(=O)N[C@@H](CO)C(=O)N[C@H](C(=O)N[C@@H](C)C(=O)N[C@@H](CC(C)C)C(=O)NCC(=O)N[C@@H](CCCCN)C(=O)N[C@@H](CC(C)C)C(=O)N[C@@H](CCC(N)=O)C(=O)N[C@@H](CC(=O)O)C(=O)N[C@H](C(=O)N[C@H](C(=O)N[C@@H](CC(N)=O)C(=O)N[C@@H](CCC(N)=O)C(=O)N[C@@H](CC(N)=O)C(=O)N[C@@H](C)C(=O)N[C@@H](CCC(N)=O)C(=O)N[C@@H](C)C(=O)N[C@@H](CC(C)C)C(=O)N[C@@H](CC(N)=O)C(=O)N[C@H](C(=O)N[C@@H](CC(C)C)C(=O)N[C@H](C(=O)N[C@@H](CCCCN)C(=O)N[C@@H](CCC(N)=O)C(=O)N[C@@H](CC(C)C)C(=O)N[C@@H](CO)C(=O)N[C@@H](CO)C(N)=O)C(C)C)[C@@H](C)O)C(C)C)C(C)C)[C@@H](C)O)[C@@H](C)O)[C@@H](C)O)[C@@H](C)O` [HR-N10] reads −3,600 degrees · cm^2 · dmol^−1; that for `CC[C@H](C)[C@H](NC(=O)[C@H](C)NC(=O)[C@H](CCCCN)NC(=O)[C@H](CC(N)=O)NC(=O)[C@H](Cc1ccccc1)NC(C)=O)C(=O)N[C@@H](CO)C(=O)N[C@@H](CCC(N)=O)C(=O)N[C@H](C(=O)N[C@@H](CCC(N)=O)C(=O)N[C@@H](CCC(=O)O)C(=O)N[C@@H](CO)C(=O)N[C@@H](CC(C)C)C(=O)N[C@H](C(=O)N[C@H](C(=O)N[C@H](C(=O)N[C@@H](CO)C(=O)N[C@H](C(=O)N[C@@H](C)C(=O)N[C@@H](CC(C)C)C(=O)NCC(=O)N[C@@H](CCCCN)C(=O)N[C@@H](CC(C)C)C(=O)N[C@@H](CCC(N)=O)C(=O)N[C@@H](CC(=O)O)C(=O)N[C@H](C(=O)N[C@H](C(=O)N[C@@H](CC(N)=O)C(=O)N[C@@H](CCC(N)=O)C(=O)N[C@@H](CC(N)=O)C(=O)N[C@@H](C)C(=O)N[C@@H](CCC(N)=O)C(=O)N[C@@H](C)C(=O)N[C@@H](CC(C)C)C(=O)N[C@@H](CC(N)=O)C(=O)N[C@H](C(N)=O)[C@@H](C)O)C(C)C)C(C)C)[C@@H](C)O)[C@@H](C)O)[C@@H](C)O)[C@@H](C)O)[C@@H](C)CC` [HR-N9], −2,800 degrees · cm^2 · dmol^−1.
